The subject of test [1] is Bacillus cereus. The experiment in a line: M.I.C. by broth dilution method (NCCLS 1988), gram-positive bacteria. It counts as cell-based. The settings on record: in vitro broth dilution. In outline:
(§1)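 MIC values were obtained by broth dilution following NCCLS 1988 against gram-positive strains including Bacillus subtilus ATCC 6633, Streptococcus faecium and Staphylococcus ATCC 6538. Enrofloxacin served as reference. Compound stocks were 1 000 μg/ml in aqueous KOH or KOH/DMF.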
(Broth dilution looks for growth in wells or tubes with falling amounts of substance.)

Test [2] has as its system Bacillus subtilus (ATCC 6633). The description is as above. Conditions: ATCC6633, in vitro broth dilution. It counts as cell-based. Summed up:
as §1

The test system of test [3] is Micrococcus Luteus (ATCC 9341). The description is as above. It counts as cell-based. Conditions: ATCC9341, in vitro broth dilution, read-out: M.I.C. values Microc. Luteus. Summed up:
as §1

The subject of test [4] is Staph. aureus (ATCC 29737). Described as above. It counts as cell-based. The settings on record: Staphylococcus aureus, ATCC29737, in vitro broth dilution. Summed up: as §1
Test [5] relates to Staph. epidermidis (ATCC 12228). Described as above. It counts as cell-based. Conditions: Staphylococcus epidermidis, ATCC12228, in vitro broth dilution. Summed up:
as §1

The test system of test [6] is Staphylococcus (ATCC 6538). The description is as above. Conditions: ATCC6538, in vitro broth dilution, read-out: M.I.C. values Staph. (ATCC 6538). It counts as cell-based. In outline: as §1
In test [7] the test system is Streptococcus faecium. Described as above. In kind it is cell-based. Conditions: Enterococcus faecium, in vitro broth dilution, read-out: M.I.C. values Streptoc. faecium. In outline:
as §1

The test system of test [8] is gram-negative bacteria (E. coli, KL. Pnemonia, Bordetella bronchiseptic, Salmonella typhi, Salmonella spp., Proteus spp., Pasterulla Duck, Pasterulla Camel). Kind of test: M.I.C. by broth dilution method, gram-negative bacteria. It counts as cell-based. Conditions: eleven gram-negative strains. As to the method: The antibacterial activity of the present compounds was investigated by in vitro evaluation of their M.I.C. (Minimum Inhibitory Concentration) values. The evaluation was conducted in complete accordance with the “Broth dilution method”, as outlined by the U.S. National Committee for Clinical Laboratory Standards “NCCLS 1988”.
Solutions of the present compounds were prepared by dissolving 0.01 g of a test compound in either 10% KOH (aq) or a 10% KOH/DMF mixture, after which sterile, distilled H2O was added up to a total volume of 10 ml, thereby yielding a test compound concentration of 1 000 μg/ml.
In the same manner as above, the M.I.C. values of the present compounds JA 3, JA 5, JA 12, JA 42, JA 73 and enrofloxacin as reference compound were investigated also on gram-negative bacteria. The gram-negative bacteria used were E. coli (ATCC 25922), E. Coli (ATCC 8739), E. Coli (ATCC 10536), E. Coli Pathogenic, KL. Pnemonia (ATCC 10031), Bordetella bronchiseptic (ATCC 4617), Salmonella typhi, Salmonella spp., Proteus spp., Pasterulla Duck and Pasterulla Camel.

The test system of test [9] is M. gallisepticum. The experiment in a line: M.I.C. against Mycoplasma in microtitre plates (Tanner and Wu). It counts as cell-based. The settings on record: Mycoplasmoides gallisepticum; in vitro, microtitre plates. As to the method:
The M.I.C. values of the compounds JA 1, JA 3, JA 5, JA 12, JA 42 and JA 43 were determined in vitro against M. gallisepticum. Enrofloxacin, tylosin and oxytetracyclin were used as reference compounds. The tested compounds were all stored and applied as solutions in distilled water. The M.I.C. evaluation was performed in microtitre plates, and the methodology employed was basically that of Tanner and Wu (Avian Disease, 36:714-717 (1992)).

Test [10] has as its system E. mitis, E. hagani, E. praecox, E. acervulina, E. maxima, E. necatrix, E. tenella and E. brunetti. Kind of test: Prophylactic anticoccidial effect in chickens of Arbor Aker breed (8 Eimeria strains). It counts as in vivo. Conditions: 100 ppm in feed from day 3, infected day 7. As to the method:
JA 12, JA 39 and JA 42 was also evaluated in chickens of Arbor Aker breed. These trials were conducted by using basically the same test protocol as that used for the chickens of Habbared X breed, albeit with the following modifications:
• i) On day 3 after hatch, the tested groups of chickens received feed containing 100 ppm of JA 12, JA 39, JA 42 or Coxistac (60 ppm); • ii) On day 7 after hatch, the chickens were infected orally by oocysts containing a mixture of 8 mature sporulated strains, namely E. mitis, E. hagani, E. praecox, E. acervulina, E. maxima, E. necatrix, E. tenella and E. brunetti.

The test system is the same in test [11]. The experiment in a line: Prophylactic anticoccidial effect, additional trials in chickens of Habbared X breed (8 Eimeria strains). In kind it is in vivo. Conditions: B700 100 ppm. As to the method: In yet another evaluation of the prophylactic anticoccidial effect of the present compounds, additional trials on chickens of Habbared X breed were performed. The same test protocol as the one previously employed for this breed of chickens was used, albeit with the following following modifications: • i) On day 8 after hatch, the chickens received feed containing B700 (100 ppm), JA 3 (200 ppm) or Coxistac (100 ppm); • ii) On day 11 after hatch, the chickens were infected orally by oocysts containing a mixture of 8 mature sporulated strains, namely E. mitis, E. hagani, E. praecox, E. acervulina, E. maxima, E. necatrix, E. tenella and E. brunetti. The results of this evaluation were slightly unexpected.

Molecules are shown by their SMILES. ≈ marks a conversion by molar mass, not a printed value.

Regarding `O=C(O)c1cn(C2CC2)c2cc(N3CCN(S(=O)(=O)C(F)(F)F)CC3)c(F)cc2c1=O` [JA 12, 1-cyclopropyl-6-fluoro-4-oxo-7-{4-[(trifluoromethyl)sulfonyl]-1-piperazinyl}-1,4-dihydro-3-quinolinecarboxylic acid], the MIC is 0.06 µg/mL (≈ 0.129 µM) in [1]; 0.12 µg/mL (≈ 0.259 µM) in test [2]; 0.5 µg/mL (≈ 1.08 µM) in test [3]; 0.12 µg/mL (≈ 0.259 µM) in [4]; 0.12 µg/mL (≈ 0.259 µM) in test [5]; 0.03 µg/mL (≈ 0.0647 µM) in test [6]. The MIC in test [7] amounted to 1 µg/mL (≈ 2.16 µM); in test [9], 0.12 µg/mL (≈ 0.259 µM). Further, the “antibacterial activity against gram-negative bacteria compared to that of enrofloxacin” value in test [8] is on record as “roughly equal to that of enrofloxacin”. In test [10], the “prophylactic anticoccidial effect (in words)” value is given as “very similar to that of JA 39”.
On to `O=C(O)c1cn(C2CC2)c2cc(NCC3CCCO3)c(F)cc2c1=O` (stereo not drawn) [JA 73, 1-cyclopropyl-6-fluoro-4-oxo-7-[(tetrahydro-2-furanylmethyl)amino]-1,4-dihydro-3-quinolinecarboxylic acid], for which the MIC in test [1] amounted to 0.06 µg/mL (≈ 0.173 µM); in [2], 0.12 µg/mL (≈ 0.346 µM); in [3], 2 µg/mL (≈ 5.77 µM); in test [4] it was 0.12 µg/mL (≈ 0.346 µM); in test [5], 0.12 µg/mL (≈ 0.346 µM); in test [6] it was 0.06 µg/mL (≈ 0.173 µM). Besides, the MIC in test [7] is 0.5 µg/mL (≈ 1.44 µM). Further, the “antibacterial activity against gram-negative bacteria compared to that of enrofloxacin” value in [8] is “roughly equal to that of enrofloxacin”.
In the case of `O=C(O)c1cn(C2CC2)c2cc(N3CCN(S(=O)(=O)c4ccc5ccccc5c4)CC3)c(F)cc2c1=O` [JA 5, 1-cyclopropyl-6-fluoro-7-[4-(2-naphthylsulfonyl)-1-piperazinyl]-4-oxo-1,4-dihydro-3-quinolinecarboxylic acid], the MIC was determined as 0.03 µg/mL (≈ 0.0575 µM) in test [1]; 0.008 µg/mL (≈ 0.0153 µM) in [2]; 0.5 µg/mL (≈ 0.959 µM) in test [3]; 0.06 µg/mL (≈ 0.115 µM) in test [4]; 0.01 µg/mL (≈ 0.0192 µM) in test [5]; 0.06 µg/mL (≈ 0.115 µM) in test [6]. Moreover, the MIC in [7] and in test [9] was 0.12 µg/mL (≈ 0.23 µM) in each case. The “antibacterial activity against gram-negative bacteria compared to that of enrofloxacin” value in test [8] is “roughly equal to that of enrofloxacin”.
On to `O=C(O)c1cn(C2CC2)c2cc(N3CCN(S(=O)(=O)c4ccc([N+](=O)[O-])cc4)CC3)c(F)cc2c1=O` [JA 3, 1-cyclopropyl-6-fluoro-7-{4-[(4-nitrophenyl)sulfonyl]-1-piperazinyl}-4-oxo-1,4-dihydro-3-quinolinecarboxylic acid], for which the MIC was 0.06 µg/mL (≈ 0.116 µM) in test [1]; 0.06 µg/mL (≈ 0.116 µM) in test [2]; 1 µg/mL (≈ 1.94 µM) in test [3]; 0.06 µg/mL (≈ 0.116 µM) in [4]; 0.01 µg/mL (≈ 0.0194 µM) in test [5]; 0.06 µg/mL (≈ 0.116 µM) in test [6]. Further, the figures for the MIC in test [7] and in test [9] were 0.25 µg/mL (≈ 0.484 µM) and 0.06 µg/mL (≈ 0.116 µM), respectively. Besides, the “antibacterial activity against gram-negative bacteria compared to that of enrofloxacin” value in test [8] is “roughly equal to that of enrofloxacin”. For the same molecule, in test [11] (JA 3 200 ppm in feed from day 8, infected day 11), the “anticoccidial activity (in words)” value is reported as “significant anticoccidial activity”. In [11] (JA 3 200 ppm, Coxistac 100 ppm), the “increased body weight gain as compared to the Coxistac treated group” value is “approximately 10%”. Also, in [11] (JA 3 200 ppm, Coxistac 100 ppm), the “total number of oocysts during the treatment compared to Coxistac group” value is “higher than for the group treated with Coxistac”.

For the origin of these results see US6967205B1, “Compounds with antibacterial and antiparasitic properties” (New Pharma Research Sweden AB, priority 1999, dated 2005).
